Columns and labels:
[1] = target: T1, GluR5-2a (Rattus norvegicus, UniProt P22756, DEL402-416); conditions: Sanders et al., 2005; cited from earlier work
T1 construct: expressed in transfected cells; host or cells: HEK-293-T/17

[2] = target: T2, GluR6 (Rattus norvegicus, UniProt P42260); conditions: Table 1; comparison value of MSVIII-19 (Sanders et al., 2005); read-out: GluR6 binding affinity (displacement of [3H]kainate); cited from earlier work
T2 construct: expressed in transfected cells; HEK 293 (patch clamp)

[3] = target: T3, GluR2(i) (Rattus norvegicus, UniProt P19491); conditions: Sanders et al., 2005; cited from earlier work
T3 construct: expressed in transfected cells; host or cells: HEK-293-T/17

[4] = target: T4, KA2 (Rattus norvegicus, UniProt Q63273); conditions: Sanders et al., 2005; cited from earlier work
T4 construct: expressed in transfected cells; host or cells: HEK-293-T/17
T4 sequence (Q63273 15-979): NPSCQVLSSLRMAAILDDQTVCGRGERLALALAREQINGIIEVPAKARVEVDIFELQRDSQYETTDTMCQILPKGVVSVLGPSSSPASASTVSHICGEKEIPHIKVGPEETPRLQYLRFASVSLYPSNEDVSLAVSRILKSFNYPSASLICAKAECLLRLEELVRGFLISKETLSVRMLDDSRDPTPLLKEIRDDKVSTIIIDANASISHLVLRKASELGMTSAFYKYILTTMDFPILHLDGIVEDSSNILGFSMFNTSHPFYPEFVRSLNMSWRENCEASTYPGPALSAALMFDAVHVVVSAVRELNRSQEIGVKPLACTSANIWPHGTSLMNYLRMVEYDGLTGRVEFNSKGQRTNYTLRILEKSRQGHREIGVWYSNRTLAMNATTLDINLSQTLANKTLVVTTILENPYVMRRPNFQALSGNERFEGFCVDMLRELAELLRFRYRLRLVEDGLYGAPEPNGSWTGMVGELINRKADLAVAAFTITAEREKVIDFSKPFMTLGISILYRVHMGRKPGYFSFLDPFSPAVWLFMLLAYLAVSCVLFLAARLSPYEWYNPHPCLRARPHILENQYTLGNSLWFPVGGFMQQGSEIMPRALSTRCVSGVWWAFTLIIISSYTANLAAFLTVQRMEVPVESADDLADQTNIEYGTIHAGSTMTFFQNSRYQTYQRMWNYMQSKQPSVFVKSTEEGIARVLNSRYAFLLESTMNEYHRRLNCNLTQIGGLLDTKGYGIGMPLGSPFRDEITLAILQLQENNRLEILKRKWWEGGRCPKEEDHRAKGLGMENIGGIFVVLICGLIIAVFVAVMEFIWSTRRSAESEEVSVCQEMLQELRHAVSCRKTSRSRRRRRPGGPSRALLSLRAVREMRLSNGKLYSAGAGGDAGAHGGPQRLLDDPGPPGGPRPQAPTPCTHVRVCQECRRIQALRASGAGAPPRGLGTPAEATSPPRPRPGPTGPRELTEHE

[5] = target: T5, GluR2 (Rattus norvegicus, UniProt P19491); conditions: Table 1; comparison value of MSVIII-19 (Sanders et al., 2005); read-out: GluR2 binding affinity (displacement of [3H]AMPA); cited from earlier work
T5 construct: expressed in transfected cells; host or cells: COS-7 or HEK-T/17

[6] = target: T2, GluR6; experiment: Patch-clamp recordings from transfected HEK 293 cells, Example 1; format: cell-based; conditions: Example 1, FIG. 5
Method: Non-specific binding was defined in the presence of 1 mM glutamate. The effect of these analogs on electrophysiology was assessed as follows. HEK 293 cells were transfected with receptor cDNAs in combination with eGFP cDNA. Patch-clamp recordings from transfected cells were made 24-72 hours later using a fast application system described previously (Swanson et al., NEURON 1997; 19:913-26). (See FIG. 3.)
The effect of these analogs on electrophysiology also was assessed as described above. […] The results further indicate that the C8 and C9 substituents are necessary for binding to all AMPA and KAR subunits except for GluR5 subunits. The C9 polar group must be present and in the correct spatial orientation for high-affinity GluR5 subunit binding. Inter-domain contacts mediated by residue 721S are critical determinants of binding affinity. The epimer analog 9-deoxy-neoDH mimics the binding affinity of the di-deoxy analog MSVIII-19, but acts as an agonist rather than an antagonist.

[7] = target: T6, GluR5-2b (Rattus norvegicus, UniProt P22756); experiment: Radioligand binding ([3H]kainate displacement), Example 2
T6 construct: expressed in transfected cells; host or cells: HEK-293-T/17
Method: Radioligand binding. Membrane preparations from HEK-293-T/17 cells were prepared and used in radioligand binding assays as described previously (Sanders et al., 2005). Unlabeled analogs were used to displace [3H]kainate (10-20 nM, PerkinElmer Life and Analytical Sciences, Boston, Mass.) or [3H]AMPA (20 nM, PerkinElmer Life and Analytical Sciences, Boston, Mass.) from KARs and AMPARs, respectively. Nonspecific binding was determined in the presence of 1 mM glutamate. After 1 hour incubation at 4° C., samples were harvested by rapid filtration onto Whatman GF/C membranes. Upon addition of scintillation fluid, membranes were incubated for 1 hour at room temperature. A Beckman LS5000TD scintillation counter was used for quantification (Beckman Coulter Inc., Fullerton, Calif.). Data were plotted and fit with a one-site competition curve with fixed minima and maxima using Prism 4 (GraphPad Software, Inc). Ki's were calculated with the Cheng-Prusoff equation using the determined IC5o values and the radioligand Kd. Data were plotted and fit with a one-site competition curve with fixed minima (0) and maxima (100) (Prism4, GraphPad Software, Inc.). […]
The pharmacological profiles of the Group I analogs, 8-deoxy-neoDH and 9-deoxyneoDH, were analyzed initially in radioligand binding experiments with expressed recombinant AMPA and kainate receptor subunits. […]

T2 sequence (P42260 32-908): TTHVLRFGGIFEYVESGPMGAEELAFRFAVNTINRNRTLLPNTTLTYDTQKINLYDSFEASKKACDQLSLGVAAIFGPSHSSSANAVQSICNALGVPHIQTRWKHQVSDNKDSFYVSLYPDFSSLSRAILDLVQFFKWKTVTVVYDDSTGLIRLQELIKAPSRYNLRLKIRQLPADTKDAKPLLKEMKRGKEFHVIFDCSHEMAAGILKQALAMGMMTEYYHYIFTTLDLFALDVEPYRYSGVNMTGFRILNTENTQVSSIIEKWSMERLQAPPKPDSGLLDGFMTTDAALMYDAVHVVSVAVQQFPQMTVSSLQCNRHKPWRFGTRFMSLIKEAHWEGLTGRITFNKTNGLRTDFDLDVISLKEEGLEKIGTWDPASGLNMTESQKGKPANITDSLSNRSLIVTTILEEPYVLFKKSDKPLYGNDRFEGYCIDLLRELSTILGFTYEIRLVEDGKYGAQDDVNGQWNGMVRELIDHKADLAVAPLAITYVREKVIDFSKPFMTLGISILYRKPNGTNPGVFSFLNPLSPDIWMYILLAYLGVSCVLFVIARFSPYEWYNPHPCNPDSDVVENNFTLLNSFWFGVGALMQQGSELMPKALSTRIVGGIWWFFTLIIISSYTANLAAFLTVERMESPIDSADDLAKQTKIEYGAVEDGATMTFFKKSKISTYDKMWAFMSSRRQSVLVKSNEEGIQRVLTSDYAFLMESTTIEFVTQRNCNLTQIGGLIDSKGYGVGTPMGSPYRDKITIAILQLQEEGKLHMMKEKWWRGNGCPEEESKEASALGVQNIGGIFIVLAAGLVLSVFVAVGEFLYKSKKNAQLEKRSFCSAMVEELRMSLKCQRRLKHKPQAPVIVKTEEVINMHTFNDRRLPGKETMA
T1 sequence (P22756 with tags, fused parts or gaps isoform P22756-2 limits assumed, stated change not applied): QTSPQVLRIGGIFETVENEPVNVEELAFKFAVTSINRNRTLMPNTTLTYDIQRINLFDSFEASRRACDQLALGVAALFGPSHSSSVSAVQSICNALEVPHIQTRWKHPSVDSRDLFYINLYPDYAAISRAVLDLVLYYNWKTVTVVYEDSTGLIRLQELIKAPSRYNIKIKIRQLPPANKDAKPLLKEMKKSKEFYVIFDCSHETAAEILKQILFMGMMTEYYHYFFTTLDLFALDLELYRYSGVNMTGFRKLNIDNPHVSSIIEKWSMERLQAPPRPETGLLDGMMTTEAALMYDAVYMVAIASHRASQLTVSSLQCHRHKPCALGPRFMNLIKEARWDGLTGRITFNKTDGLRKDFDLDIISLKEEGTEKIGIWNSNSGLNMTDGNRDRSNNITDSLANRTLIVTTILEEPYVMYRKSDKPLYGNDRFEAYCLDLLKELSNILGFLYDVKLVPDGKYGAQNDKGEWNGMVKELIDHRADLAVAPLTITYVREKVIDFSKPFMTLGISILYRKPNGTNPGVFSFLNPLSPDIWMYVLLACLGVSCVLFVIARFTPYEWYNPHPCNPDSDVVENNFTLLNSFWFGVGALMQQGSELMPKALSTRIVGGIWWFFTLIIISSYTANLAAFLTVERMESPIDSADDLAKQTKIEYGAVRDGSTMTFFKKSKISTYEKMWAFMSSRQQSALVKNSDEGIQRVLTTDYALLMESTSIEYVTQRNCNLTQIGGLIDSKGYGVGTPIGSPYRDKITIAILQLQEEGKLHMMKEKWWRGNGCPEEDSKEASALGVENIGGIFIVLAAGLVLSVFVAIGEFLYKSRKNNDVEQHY
T5 sequence (P19491 22-883 isoform P19491-2 limits assumed): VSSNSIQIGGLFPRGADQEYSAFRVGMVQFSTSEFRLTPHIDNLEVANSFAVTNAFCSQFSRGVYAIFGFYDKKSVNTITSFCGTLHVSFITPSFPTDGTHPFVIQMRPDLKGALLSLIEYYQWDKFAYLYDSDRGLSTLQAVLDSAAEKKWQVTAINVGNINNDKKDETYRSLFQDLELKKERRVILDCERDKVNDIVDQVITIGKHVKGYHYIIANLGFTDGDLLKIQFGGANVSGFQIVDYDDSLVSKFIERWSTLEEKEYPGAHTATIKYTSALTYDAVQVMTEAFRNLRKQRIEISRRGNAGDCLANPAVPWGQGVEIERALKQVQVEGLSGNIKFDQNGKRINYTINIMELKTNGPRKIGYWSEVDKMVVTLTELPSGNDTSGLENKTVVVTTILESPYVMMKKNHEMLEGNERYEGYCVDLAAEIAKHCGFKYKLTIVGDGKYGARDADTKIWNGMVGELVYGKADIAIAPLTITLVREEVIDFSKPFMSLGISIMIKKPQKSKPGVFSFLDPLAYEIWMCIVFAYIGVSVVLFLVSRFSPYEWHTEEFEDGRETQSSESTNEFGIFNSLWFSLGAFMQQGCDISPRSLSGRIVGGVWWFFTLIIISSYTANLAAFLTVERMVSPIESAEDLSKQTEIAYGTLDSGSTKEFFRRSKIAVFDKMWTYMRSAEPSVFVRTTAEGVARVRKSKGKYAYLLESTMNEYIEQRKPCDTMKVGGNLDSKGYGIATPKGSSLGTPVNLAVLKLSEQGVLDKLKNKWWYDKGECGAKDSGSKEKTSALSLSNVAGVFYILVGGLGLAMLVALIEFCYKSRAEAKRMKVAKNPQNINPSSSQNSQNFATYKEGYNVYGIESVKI
T3 sequence (P19491 22-883 isoform P19491-2 limits assumed): as above
T6 sequence (P22756 31-905 isoform P22756-2 limits assumed): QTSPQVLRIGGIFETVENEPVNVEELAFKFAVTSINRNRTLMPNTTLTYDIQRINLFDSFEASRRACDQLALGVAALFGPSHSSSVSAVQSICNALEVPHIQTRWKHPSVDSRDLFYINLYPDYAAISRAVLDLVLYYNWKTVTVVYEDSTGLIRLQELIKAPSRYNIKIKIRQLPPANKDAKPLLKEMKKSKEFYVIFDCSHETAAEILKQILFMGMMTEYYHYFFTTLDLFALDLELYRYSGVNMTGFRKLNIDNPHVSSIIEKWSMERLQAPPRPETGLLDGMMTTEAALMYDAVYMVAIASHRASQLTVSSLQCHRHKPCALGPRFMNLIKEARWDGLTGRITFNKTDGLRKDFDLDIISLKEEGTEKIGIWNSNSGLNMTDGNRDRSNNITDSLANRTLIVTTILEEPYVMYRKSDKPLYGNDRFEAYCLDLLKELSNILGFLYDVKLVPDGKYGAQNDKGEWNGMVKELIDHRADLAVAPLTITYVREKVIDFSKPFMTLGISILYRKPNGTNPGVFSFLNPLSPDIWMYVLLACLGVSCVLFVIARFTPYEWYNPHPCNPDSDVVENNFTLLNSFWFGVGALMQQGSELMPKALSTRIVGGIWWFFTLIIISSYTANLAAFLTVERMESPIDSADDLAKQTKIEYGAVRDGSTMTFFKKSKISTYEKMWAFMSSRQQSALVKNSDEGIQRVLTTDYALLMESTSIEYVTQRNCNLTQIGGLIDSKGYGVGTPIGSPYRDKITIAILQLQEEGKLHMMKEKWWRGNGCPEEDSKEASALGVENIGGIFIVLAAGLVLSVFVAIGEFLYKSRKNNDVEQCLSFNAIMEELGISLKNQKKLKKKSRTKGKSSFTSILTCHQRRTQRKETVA

N[C@@H](C[C@]1(C(=O)O)C[C@H]2OCCC[C@H]2O1)C(=O)O [MSVIII-19, 8,9-dideoxy-neoDH]
Ki [1]: 128 nM
Ki [2]: > 100 µM
Ki [3]: > 100 µM
Ki KA2 [4]: >100 µM
Ki [5]: > 100 µM

N[C@@H](C[C@@]1(C(=O)O)CC2OCC(O)C(O)C2O1)C(=O)O (single isomer, unassigned) [4-epi-neoDH, 4-epi-neodysiherbaine]
agonist or antagonist at GluR6 (electrophysiology) [6]: GluR5/GluR6 antagonist

N[C@@H](C[C@]1(C(=O)O)C[C@H]2OC[C@@H](O)C[C@H]2O1)C(=O)O [8-deoxy-neoDH]
Ki [7]: 2 nM

Reference: patent US7973075B2, “Kainate receptor-selective epimeric analogs of dysiherbaine” (priority 2007, dated 2011)
